Test results as given in patent publication US8410144B2, “Substituted indolo-pyridinone compounds” (ArQule, Inc., priority 2009, dated 2013).

Tests used:
[1] = system: DLD-1; test: MTS assay, DLD-1 cells; type: cell-based; conditions: Homo sapiens, 72 hours, read-out: DLD-1, MTS cell kill % inhibition
In short: (§1)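 First, seed 3000 cells per well in low-serum (1% FBS) DMEM and culture 18 h. Next, add compounds prepared at 300× in DMSO and diluted 1:40 in DMEM; incubate 72 h. Finally, add MTS/PMS for 4 h and measure absorbance at 492 nm.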

[2] = system: KATO III; test: MTS assay, KATO III cells; type: cell-based; conditions: Homo sapiens, 72 hours, read-out: KATO III, MTS cell kill % inhibition
In short: as §1

[3] = system: MDA-MB-231; test: MTS assay, MDA-MB-231 cells; type: cell-based; conditions: Homo sapiens, 72 hours, read-out: MDA-MB-231, MTS cell kill % inhibition
In short: as §1

[4] = system: NCI-H1299; test: MTS assay, NCI-H1299 cells; type: cell-based; conditions: Homo sapiens, 72 hours, read-out: NCI-H1299, MTS cell kill % inhibition
In short: as §1

[5] = molecular target: IGF-1R (Homo sapiens, UniProt P08069); test: IGFR1 activity assay (ELISA); type: biochemical; conditions: read-out: IGF-1R, PCT INH (30 μM), ELISA
In short: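 IGF1R (0.33 ng/μL final) phosphorylating Pyk-2 (0.05 ng/μL final) in buffer with 12.5 μM ATP, 10 mM MgCl2, 1 h room temperature. Product captured on streptavidin plates, detected with anti-phosphotyrosine and alkaline phosphatase secondary antibody, Attophos fluorescent readout.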

IGF-1R, sequence (P08069 31-1367): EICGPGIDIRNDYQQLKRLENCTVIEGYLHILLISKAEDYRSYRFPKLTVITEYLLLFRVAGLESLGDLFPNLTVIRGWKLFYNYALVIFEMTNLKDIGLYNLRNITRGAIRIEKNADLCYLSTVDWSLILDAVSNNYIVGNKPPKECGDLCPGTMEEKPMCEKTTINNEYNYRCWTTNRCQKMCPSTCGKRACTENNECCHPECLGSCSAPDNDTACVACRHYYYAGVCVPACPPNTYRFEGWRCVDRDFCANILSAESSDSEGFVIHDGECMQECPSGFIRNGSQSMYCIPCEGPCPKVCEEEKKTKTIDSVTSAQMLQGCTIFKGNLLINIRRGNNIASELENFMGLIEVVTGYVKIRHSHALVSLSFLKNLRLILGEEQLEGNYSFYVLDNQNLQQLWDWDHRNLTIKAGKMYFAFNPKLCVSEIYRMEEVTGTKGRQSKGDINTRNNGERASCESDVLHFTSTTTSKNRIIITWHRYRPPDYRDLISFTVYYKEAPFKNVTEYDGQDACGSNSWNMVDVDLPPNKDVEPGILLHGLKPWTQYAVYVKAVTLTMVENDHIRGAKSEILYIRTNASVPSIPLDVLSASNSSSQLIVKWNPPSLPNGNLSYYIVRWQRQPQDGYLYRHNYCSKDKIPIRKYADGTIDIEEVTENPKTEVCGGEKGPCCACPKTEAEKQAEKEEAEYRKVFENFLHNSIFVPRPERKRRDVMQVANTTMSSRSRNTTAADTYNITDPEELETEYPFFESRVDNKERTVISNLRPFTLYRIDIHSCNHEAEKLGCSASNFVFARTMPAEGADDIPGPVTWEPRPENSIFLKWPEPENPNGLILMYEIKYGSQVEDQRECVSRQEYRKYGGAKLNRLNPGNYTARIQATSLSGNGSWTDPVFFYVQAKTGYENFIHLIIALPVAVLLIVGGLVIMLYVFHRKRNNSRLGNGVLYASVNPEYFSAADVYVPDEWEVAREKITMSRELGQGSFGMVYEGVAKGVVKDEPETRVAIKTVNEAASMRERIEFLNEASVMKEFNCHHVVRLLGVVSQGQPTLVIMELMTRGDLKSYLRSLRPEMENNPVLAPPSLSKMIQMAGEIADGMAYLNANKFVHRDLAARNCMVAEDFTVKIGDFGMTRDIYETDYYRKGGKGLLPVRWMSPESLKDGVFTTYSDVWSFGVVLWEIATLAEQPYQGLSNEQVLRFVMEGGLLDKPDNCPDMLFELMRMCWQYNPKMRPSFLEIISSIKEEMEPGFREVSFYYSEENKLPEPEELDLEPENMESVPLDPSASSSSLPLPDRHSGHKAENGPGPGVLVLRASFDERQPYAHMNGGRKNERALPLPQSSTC

Structure (SMILES)	inhibition at 10 µM [1]	inhibition at 10 µM [2]	inhibition at 10 µM [3]	inhibition at 10 µM [4]	inhibition at 30 µM [5]	melting point
CN(C)CCCNCc1ccc2[nH]c(-c3ccc[nH]c3=O)c(-c3ccc(-c4ccccc4)cc3)c2c1 [Compound 54, 3-[3-biphenyl-4-yl-5-({[3-(dimethylamino)propyl]amino}methyl)-1H-indol-2-yl]pyridin-2(1H)-one]	50 to 79%	< 50%	50 to 79%	< 50%	< 50%	160 to 166 °C
O=C(NCCCN1CCOCC1)c1ccc2[nH]c(-c3ccc[nH]c3=O)c(Br)c2c1 [Compound 56, 3-bromo-N-(3-morpholin-4-ylpropyl)-2-(2-oxo-1,2-dihydropyridin-3-yl)-1H-indole-5-carboxamide]	< 50%	< 50%	< 50%	< 50%	80 to 100%	138 to 142 °C
O=C(NCCCN1CCOCC1)c1ccc2[nH]c(-c3ccc[nH]c3=O)c(-c3ccc(Oc4ccccc4)cc3)c2c1 [Compound 57, N-(3-morpholin-4-ylpropyl)-2-(2-oxo-1,2-dihydropyridin-3-yl)-3-(4-phenoxyphenyl)-1H-indole-5-carboxamide]	80 to 100%	80 to 100%	80 to 100%	80 to 100%	80 to 100%	121 to 123 °C
O=C(NCCCN1CCOCC1)c1ccc2[nH]c(-c3ccc[nH]c3=O)c(-c3ccc(Cl)c(Cl)c3)c2c1 [Compound 59, 3-(3,4-dichlorophenyl)-N-(3-morpholin-4-ylpropyl)-2-(2-oxo-1,2-dihydropyridin-3-yl)-1H-indole-5-carboxamide]	50 to 79%	80 to 100%	< 50%	50 to 79%	50 to 79%	135 to 138 °C
CCc1ccc(-c2c(-c3ccc[nH]c3=O)[nH]c3ccc(C(=O)NCCCN4CCOCC4)cc23)cc1 [Compound 65, 3-(4-ethylphenyl)-N-(3-morpholin-4-ylpropyl)-2-(2-oxo-1,2-dihydropyridin-3-yl)-1H-indole-5-carboxamide]	80 to 100%	80 to 100%	50 to 79%	80 to 100%	80 to 100%	143 to 145 °C
CC(C)Oc1ccc(-c2c(-c3ccc[nH]c3=O)[nH]c3ccc(C(=O)NCCCN4CCOCC4)cc23)cc1 [Compound 66, 3-(4-isopropoxyphenyl)-N-(3-morpholin-4-ylpropyl)-2-(2-oxo-1,2-dihydropyridin-3-yl)-1H-indole-5-carboxamide]	50 to 79%	80 to 100%	80 to 100%	80 to 100%	80 to 100%	140 to 143 °C
Cc1cc(C)cc(-c2c(-c3ccc[nH]c3=O)[nH]c3ccc(C(=O)NCCCN4CCOCC4)cc23)c1 [Compound 70, 3-(3,5-dimethylphenyl)-N-(3-morpholin-4-ylpropyl)-2-(2-oxo-1,2-dihydropyridin-3-yl)-1H-indole-5-carboxamide]	80 to 100%	80 to 100%	80 to 100%	80 to 100%	80 to 100%	115 to 120 °C
Cc1ccc(-c2c(-c3ccc[nH]c3=O)[nH]c3ccc(C(=O)NCCCN4CCOCC4)cc23)cc1 [Compound 72, 3-(4-methylphenyl)-N-(3-morpholin-4-ylpropyl)-2-(2-oxo-1,2-dihydropyridin-3-yl)-1H-indole-5-carboxamide]	50 to 79%	80 to 100%	< 50%	80 to 100%	80 to 100%	152 to 154 °C
Cc1cccc(-c2c(-c3ccc[nH]c3=O)[nH]c3ccc(C(=O)NCCCN4CCOCC4)cc23)c1 [Compound 78, 3-(3-methylphenyl)-N-(3-morpholin-4-ylpropyl)-2-(2-oxo-1,2-dihydropyridin-3-yl)-1H-indole-5-carboxamide]	50 to 79%	< 50%	< 50%	50 to 79%	80 to 100%	120 to 122 °C
CCOc1ccc(-c2c(-c3ccc[nH]c3=O)[nH]c3ccc(C(=O)NCCCN4CCOCC4)cc23)cc1 [Compound 79, 3-(4-ethoxyphenyl)-N-(3-morpholin-4-ylpropyl)-2-(2-oxo-1,2-dihydropyridin-3-yl)-1H-indole-5-carboxamide]	80 to 100%	80 to 100%	80 to 100%	80 to 100%	80 to 100%	143 to 145 °C
O=c1[nH]cccc1-c1[nH]c2ccccc2c1-c1ccccc1 [Compound 84, 3-(3-phenyl-1H-indol-2-yl)pyridin-2(1H)-one]	50 to 79%	80 to 100%	50 to 79%	50 to 79%	80 to 100%	240 to 242 °C
O=c1[nH]cccc1-c1[nH]c2ccccc2c1C1CCN(Cc2cccc3ccccc23)CC1 [Compound 88, 3-{3-[1-(1-naphthylmethyl)piperidin-4-yl]-1H-indol-2-yl}pyridin-2(1H)-one]	80 to 100%	< 50%	80 to 100%	< 50%	< 50%	205 to 206 °C
